In PubChem BioAssay AID1259407 (Chemical Carcinogenesis Research Information System (CCRIS), 2018):
Activity calls are given as the source filed them. No rule for the calls is given here.

Test system: CCRIS mutagenicity, Ames/micronucleus/aberration tests
Assay: CCRIS mutagenicity studies
[1] = Test System: AMES SALMONELLA TYPHIMURIUM, Strain/Indicator: TA98, Metabolic Activation: NONE, Method: STANDARD PLATE
[2] = Test System: AMES SALMONELLA TYPHIMURIUM, Strain/Indicator: TA100, Metabolic Activation: NONE, Method: STANDARD PLATE
[3] = Test System: AMES SALMONELLA TYPHIMURIUM, Strain/Indicator: TA98, Metabolic Activation: RAT, LIVER, S-9, AROCLOR 1254, Method: STANDARD PLATE
[4] = Test System: AMES SALMONELLA TYPHIMURIUM, Strain/Indicator: TA100, Metabolic Activation: RAT, LIVER, S-9, AROCLOR 1254, Method: STANDARD PLATE
[5] = Test System: AMES SALMONELLA TYPHIMURIUM, Strain/Indicator: TA1535, Metabolic Activation: NONE, Method: STANDARD PLATE
[6] = Test System: AMES SALMONELLA TYPHIMURIUM, Strain/Indicator: TA1537, Metabolic Activation: NONE, Method: STANDARD PLATE

Measured: mutagenic call

CC(=O)O[C@H]1C(=O)[C@@]2(C)[C@H]([C@H](OC(=O)c3ccccc3)[C@]3(O)C[C@H](OC(=O)[C@H](O)[C@@H](NC(=O)c4ccccc4)c4ccccc4)C(C)=C1C3(C)C)[C@]1(OC(C)=O)CO[C@@H]1C[C@@H]2O
active: End Point: IN VITRO CHROMOSOMAL ABERRATIONS, Test System: PERIPHERAL HUMAN BLOOD LYMPHOCYTES, Metabolic Activation: NONE active; positive (ploidy changes) | End Point: In vitro micronucleus, Test System: Human lymphoblastoid TK6 cells, Metabolic Activation: None active; positive (p<0.001) | End Point: In vivo micronucleus, Test System: Micronucleated, binucleated and multinucleated hepatocytes, Species: Mouse, Strain/Sex: ddY/Male, Route: Intravenous active; positive for micronucleated, binucleated and multinucleated cells when agent adm | Test System: Mouse lymphoma, Strain/Indicator: L5178Y (Tk+/Tk-), Metabolic Activation: None, Method: Microwell active; positive
inactive: Test System: AMES SALMONELLA TYPHIMURIUM, Strain/Indicator: TA97, Metabolic Activation: NONE, Method: STANDARD PLATE inactive; negative | Test System: AMES SALMONELLA TYPHIMURIUM, Strain/Indicator: TA97, Metabolic Activation: S-9, Method: STANDARD PLATE inactive; negative | [1] inactive; negative | Test System: AMES SALMONELLA TYPHIMURIUM, Strain/Indicator: TA98, Metabolic Activation: S-9, Method: STANDARD PLATE inactive; negative | [2] inactive; negative | Test System: AMES SALMONELLA TYPHIMURIUM, Strain/Indicator: TA100, Metabolic Activation: S-9, Method: STANDARD PLATE inactive; negative | Test System: AMES SALMONELLA TYPHIMURIUM, Strain/Indicator: TA102, Metabolic Activation: NONE, Method: STANDARD PLATE inactive; negative | Test System: AMES SALMONELLA TYPHIMURIUM, Strain/Indicator: TA102, Metabolic Activation: S-9, Method: STANDARD PLATE inactive; negative

Nc1ccc(CCc2ccc(N)cc2)cc1
active: [3] active; positive | [4] active; positive
inactive: [1] inactive; negative | [2] inactive; negative

C#C[C@]1(O)CC[C@H]2[C@@H]3CCC4=CC(=O)CC[C@@H]4[C@H]3CC[C@@]21CC
active: End Point: IN VITRO CHROMOSOMAL ABERRATIONS, Test System: HUMAN LYMPHOCYTES, Metabolic Activation: NONE active; positive at two higher doses (structural changes) | End Point: IN VITRO CHROMOSOMAL ABERRATIONS, Test System: HUMAN LYMPHOCYTES, Metabolic Activation: RAT, LIVER, S-9, PHENOBARBITONE active; positive at all dose levels (structural changes)
inactive: Test System: AMES SALMONELLA TYPHIMURIUM, Strain/Indicator: TA98, Metabolic Activation: MOUSE, LIVER, S-9, Method: STANDARD PLATE inactive; negative | [1] inactive; negative | [3] inactive; negative | Test System: AMES SALMONELLA TYPHIMURIUM, Strain/Indicator: TA100, Metabolic Activation: MOUSE, LIVER, S-9, Method: STANDARD PLATE inactive; negative | [2] inactive; negative | [4] inactive; negative | Test System: AMES SALMONELLA TYPHIMURIUM, Strain/Indicator: TA1535, Metabolic Activation: MOUSE, LIVER, S-9, Method: STANDARD PLATE inactive; negative | [5] inactive; negative | Test System: AMES SALMONELLA TYPHIMURIUM, Strain/Indicator: TA1535, Metabolic Activation: RAT, LIVER, S-9, AROCLOR 1254, Method: STANDARD PLATE inactive; negative | Test System: AMES SALMONELLA TYPHIMURIUM, Strain/Indicator: TA1537, Metabolic Activation: MOUSE, LIVER, S-9, Method: STANDARD PLATE inactive; negative | [6] inactive; negative | Test System: AMES SALMONELLA TYPHIMURIUM, Strain/Indicator: TA1537, Metabolic Activation: RAT, LIVER, S-9, AROCLOR 1254, Method: STANDARD PLATE inactive; negative | Test System: AMES SALMONELLA TYPHIMURIUM, Strain/Indicator: TA1538, Metabolic Activation: MOUSE, LIVER, S-9, Method: STANDARD PLATE inactive; negative | Test System: AMES SALMONELLA TYPHIMURIUM, Strain/Indicator: TA1538, Metabolic Activation: NONE, Method: STANDARD PLATE inactive; negative | Test System: AMES SALMONELLA TYPHIMURIUM, Strain/Indicator: TA1538, Metabolic Activation: RAT, LIVER, S-9, AROCLOR 1254, Method: STANDARD PLATE inactive; negative

CN(Cc1ccc(Br)cc1)N=O
inactive: [5] inactive; negative
active: Test System: AMES SALMONELLA TYPHIMURIUM, Strain/Indicator: TA1535, Metabolic Activation: HAMSTER, LIVER, S-9, AROCLOR 1254, Method: STANDARD PLATE active; positive

Cc1cc(Cl)ccc1N
active: End Point: IN VITRO CHROMOSOMAL ABERRATIONS, Test System: CHINESE HAMSTER OVARY CELLS, Metabolic Activation: RAT, LIVER, S-9, AROCLOR 1254 active; positive | [3] active; positive | Test System: AMES SALMONELLA TYPHIMURIUM, Strain/Indicator: TA98, Metabolic Activation: RAT, LIVER, S-9, CLOPHEN A50, Method: STANDARD PLATE active; positive | Test System: AMES SALMONELLA TYPHIMURIUM, Strain/Indicator: TA100, Metabolic Activation: RAT, LIVER, S-9, CLOPHEN A50, Method: STANDARD PLATE active; positive
inactive: End Point: IN VITRO CHROMOSOMAL ABERRATIONS, Test System: CHINESE HAMSTER OVARY CELLS, Metabolic Activation: NONE inactive; negative; authors report that the study may not have allowed sufficient time for | [1] inactive; negative | [2] inactive; negative | [4] inactive; negative | [5] inactive; negative | Test System: AMES SALMONELLA TYPHIMURIUM, Strain/Indicator: TA1535, Metabolic Activation: RAT, LIVER, S-9, CLOPHEN A50, Method: STANDARD PLATE inactive; negative | [6] inactive; negative | Test System: AMES SALMONELLA TYPHIMURIUM, Strain/Indicator: TA1537, Metabolic Activation: RAT, LIVER, S-9, CLOPHEN A50, Method: STANDARD PLATE inactive; negative

Cc1nccc2c1[nH]c1ccccc12
inactive: Test System: AMES SALMONELLA TYPHIMURIUM, Strain/Indicator: TA97, Metabolic Activation: RAT, LIVER, S-9, AROCLOR 1254, Method: PREINCUBATION inactive; negative | Test System: AMES SALMONELLA TYPHIMURIUM, Strain/Indicator: TA98, Metabolic Activation: NONE, Method: PREINCUBATION inactive; negative | Test System: AMES SALMONELLA TYPHIMURIUM, Strain/Indicator: TA98, Metabolic Activation: RAT, LIVER, S-9, AROCLOR 1254, Method: PREINCUBATION inactive; negative | Test System: AMES SALMONELLA TYPHIMURIUM, Strain/Indicator: TA100, Metabolic Activation: NONE, Method: PREINCUBATION inactive; negative | Test System: AMES SALMONELLA TYPHIMURIUM, Strain/Indicator: TA100, Metabolic Activation: RAT, LIVER, S-9, AROCLOR 1254, Method: PREINCUBATION inactive; negative | Test System: AMES SALMONELLA TYPHIMURIUM, Strain/Indicator: TA102, Metabolic Activation: NONE, Method: PREINCUBATION inactive; negative | Test System: AMES SALMONELLA TYPHIMURIUM, Strain/Indicator: TA102, Metabolic Activation: RAT, LIVER, S-9, AROCLOR 1254, Method: PREINCUBATION inactive; negative
active: Test System: AMES SALMONELLA TYPHIMURIUM, Strain/Indicator: TA97, Metabolic Activation: NONE, Method: PREINCUBATION active; positive
